The record followed here is paper PMC6851342 (The Journal of Biological Chemistry, 2019).

The experiment deals with T1, WT EhV1 (A3B3DF complex, V1-ATPase from Enterococcus hirae) (Enterococcus hirae, UniProt Q08636+Q08637).
T1 construct: gene ntpA
Nature of the experiment: single-molecule rotation, ADP-dependent backward steps and pause durations. The experiment is classed as biochemical. The settings on record: ATPγS-driven rotation; 10-100 μM ATPγS, 1-300 μM ADP, no ADP-quenching system, pH 6.5.

Regarding `Nc1ncnc2c1ncn2[C@@H]1O[C@H](COP(=O)(O)OP(=O)(O)O)[C@@H](O)[C@H]1O` [ADP], the “single-molecule rotation, ADP-dependent backward steps and pause durations” value is on record as “the addition of ADP causes frequent backward steps during the rotation”.
